Assay results taken from patent publication US20200262813A1, “1,5,7-TRISUBSTITUTED ISOQUINOLINE DERIVATIVES, PREPARATION THEREOF, AND USE THEREOF IN MEDICINES” (SHANGHAI HAIYAN PHARMACEUTICAL TECHNOLOGY CO., LTD., priority 2016, published 2020).

Key:
Pfeiffer cells = test: Cell proliferation test (cell counting kit-8, 6 days); type: cell-based; conditions: Homo sapiens, Pfeiffer, 144 h, 6 days' growth
Procedure: Cells were harvested by centrifuge and densities were determined using a CounterStar cell counter. Appropriate number of cells were plated in a 96-well culture plate and incubated overnight. Compounds to be tested were 1:3 diluted for 8 gradient points and added into corresponding wells. After 6 days' growth, cell counting kit-8 (Dojindo) was used to detect cell viability and absorbance values were read on Tecan infinite pro.

[1] = molecular target: Recombinant PRC2 (EZH2-Y641F) (Homo sapiens, UniProt Q15910, Y641F); test: In vitro methyltransferase activity test (LANCE Ultra); conditions: EZH2 Y641F IC50, Recombinant PRC2 (EZH2-Y641F), LANCE Ultra detection, 3 hours reaction;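 also: compounds tested as an 8-point threefold dilution series, fluorescence read after 1 h detection step at room temperature, IC50 derived from a four-parameter curve fit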
Chain of Recombinant PRC2 (EZH2-Y641F) (Q15910 whole entry Y641F): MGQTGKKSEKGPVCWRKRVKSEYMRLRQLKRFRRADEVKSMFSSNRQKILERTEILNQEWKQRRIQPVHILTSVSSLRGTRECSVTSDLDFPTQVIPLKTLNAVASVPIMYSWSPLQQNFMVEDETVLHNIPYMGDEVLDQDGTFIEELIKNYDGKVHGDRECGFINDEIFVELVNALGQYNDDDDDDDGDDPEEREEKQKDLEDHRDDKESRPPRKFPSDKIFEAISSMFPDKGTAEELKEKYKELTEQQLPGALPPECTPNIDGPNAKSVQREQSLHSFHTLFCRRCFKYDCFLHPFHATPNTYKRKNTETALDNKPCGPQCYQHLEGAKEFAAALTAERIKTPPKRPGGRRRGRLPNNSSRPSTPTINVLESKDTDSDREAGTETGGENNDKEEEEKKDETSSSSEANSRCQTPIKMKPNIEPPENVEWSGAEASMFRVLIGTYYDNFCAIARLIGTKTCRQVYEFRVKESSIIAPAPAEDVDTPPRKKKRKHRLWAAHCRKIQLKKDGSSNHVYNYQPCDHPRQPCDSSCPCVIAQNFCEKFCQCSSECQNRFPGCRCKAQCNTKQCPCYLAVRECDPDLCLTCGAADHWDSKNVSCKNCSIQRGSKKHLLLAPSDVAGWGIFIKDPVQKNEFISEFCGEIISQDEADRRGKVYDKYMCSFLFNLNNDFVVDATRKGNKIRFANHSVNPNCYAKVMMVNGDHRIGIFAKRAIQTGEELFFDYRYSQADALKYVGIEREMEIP
Chain of Recombinant PRC2 (EZH2-Y641F) (O75530 whole entry partner): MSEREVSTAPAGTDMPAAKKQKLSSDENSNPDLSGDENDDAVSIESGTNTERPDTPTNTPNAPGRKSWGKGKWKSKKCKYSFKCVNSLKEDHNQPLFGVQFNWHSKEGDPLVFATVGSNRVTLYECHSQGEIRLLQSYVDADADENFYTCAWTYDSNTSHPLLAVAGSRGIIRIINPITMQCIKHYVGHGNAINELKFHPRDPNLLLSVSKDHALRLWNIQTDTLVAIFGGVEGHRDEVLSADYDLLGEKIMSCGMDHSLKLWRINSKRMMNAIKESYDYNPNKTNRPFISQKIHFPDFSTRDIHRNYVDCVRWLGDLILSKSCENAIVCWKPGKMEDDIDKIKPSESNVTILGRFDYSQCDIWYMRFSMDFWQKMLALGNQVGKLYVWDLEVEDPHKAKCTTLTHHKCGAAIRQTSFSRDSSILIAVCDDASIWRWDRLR
Chain of Recombinant PRC2 (EZH2-Y641F) (Q15022 whole entry partner): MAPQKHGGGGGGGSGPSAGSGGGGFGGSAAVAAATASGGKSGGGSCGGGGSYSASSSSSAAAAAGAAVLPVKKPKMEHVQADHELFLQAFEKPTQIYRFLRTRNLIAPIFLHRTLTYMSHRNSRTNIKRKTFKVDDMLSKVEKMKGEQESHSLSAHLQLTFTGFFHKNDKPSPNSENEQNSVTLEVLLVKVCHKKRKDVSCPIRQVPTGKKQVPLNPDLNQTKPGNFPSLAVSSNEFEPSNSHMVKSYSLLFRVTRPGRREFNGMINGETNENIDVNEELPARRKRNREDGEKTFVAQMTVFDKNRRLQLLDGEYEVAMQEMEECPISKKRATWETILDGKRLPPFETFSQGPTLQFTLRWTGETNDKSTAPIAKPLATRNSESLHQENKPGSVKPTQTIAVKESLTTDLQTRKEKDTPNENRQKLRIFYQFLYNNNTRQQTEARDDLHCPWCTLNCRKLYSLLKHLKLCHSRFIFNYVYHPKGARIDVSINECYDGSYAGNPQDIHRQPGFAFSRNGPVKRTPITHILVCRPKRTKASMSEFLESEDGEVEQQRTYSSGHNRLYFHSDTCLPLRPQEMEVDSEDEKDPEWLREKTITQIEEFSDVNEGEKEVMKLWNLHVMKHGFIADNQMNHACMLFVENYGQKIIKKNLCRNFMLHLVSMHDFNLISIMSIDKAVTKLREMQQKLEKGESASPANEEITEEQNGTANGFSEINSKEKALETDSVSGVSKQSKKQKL
Chain of Recombinant PRC2 (EZH2-Y641F) (Q09028 whole entry partner): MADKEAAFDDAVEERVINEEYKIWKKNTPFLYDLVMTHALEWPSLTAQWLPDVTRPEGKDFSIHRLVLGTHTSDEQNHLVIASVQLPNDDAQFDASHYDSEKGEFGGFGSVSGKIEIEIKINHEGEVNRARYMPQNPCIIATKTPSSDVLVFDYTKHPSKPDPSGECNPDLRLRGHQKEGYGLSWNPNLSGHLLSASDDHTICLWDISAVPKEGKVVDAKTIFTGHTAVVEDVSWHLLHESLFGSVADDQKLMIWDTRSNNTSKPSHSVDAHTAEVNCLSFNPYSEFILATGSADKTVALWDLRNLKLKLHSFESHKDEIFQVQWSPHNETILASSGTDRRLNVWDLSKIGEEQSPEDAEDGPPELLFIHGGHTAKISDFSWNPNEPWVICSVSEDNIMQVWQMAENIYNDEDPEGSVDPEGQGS
Chain of Recombinant PRC2 (EZH2-Y641F) (Q6ZN18 whole entry partner): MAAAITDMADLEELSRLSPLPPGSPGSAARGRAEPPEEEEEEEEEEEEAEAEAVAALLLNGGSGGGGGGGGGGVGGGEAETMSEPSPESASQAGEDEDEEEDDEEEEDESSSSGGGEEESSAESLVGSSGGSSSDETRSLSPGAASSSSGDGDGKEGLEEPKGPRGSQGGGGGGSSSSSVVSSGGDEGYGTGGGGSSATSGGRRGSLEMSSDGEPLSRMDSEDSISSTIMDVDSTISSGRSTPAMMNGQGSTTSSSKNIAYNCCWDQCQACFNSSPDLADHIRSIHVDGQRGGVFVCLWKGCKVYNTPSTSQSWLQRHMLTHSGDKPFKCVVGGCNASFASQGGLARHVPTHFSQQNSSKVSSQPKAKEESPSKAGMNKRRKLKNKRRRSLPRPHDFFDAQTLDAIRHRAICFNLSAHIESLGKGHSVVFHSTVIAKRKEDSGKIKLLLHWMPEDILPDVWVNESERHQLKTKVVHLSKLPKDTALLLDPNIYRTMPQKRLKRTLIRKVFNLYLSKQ
Procedure: In Vitro Methyltransferase Activity Test
Recombinant PRC2 (EZH2-Y641F) was purchased from Active motif, S-adenosyl-methionine (SAM) and Poly-L-lysine (PLL) were purchased from Sigma-Aldrich, H3(1-50)K27mel polypeptide was purchased from Cisbio. LANCEUltra system (Perkinelmer) was used for detection. In the enzyme activity test, a compound to be tested was 1:3 diluted for 8 gradient points, added into a reaction plate, and then added 100 ng recombinant enzyme. And then a buffer [20 mM Tris pH8.5, 2 mM MgCl2, 0.01% Tween-20, 1 mM TCEP] containing 2.5 M SAM/250 nM H3(1-50)K27mel premixture was added to conduct an enzyme reaction at room tempreture. After reacted for 3 hours, a dection solution containing premixed PLL, detection antibody and Ulight was added, reacted for 1 h at RT, then fluorescence was read on Tecan infinite pro. IC50s were calculated by four-factor model fitting in a XLfit software.

Row | Structure (SMILES) | IC50 (Pfeiffer cells) [nM] | IC50 [1] [nM]
1 | CCN(c1cc(-c2ccc(N3CCN(C)CC3)nc2)cc2c(NCc3c(C)cc(C)[nH]c3=O)nccc12)C1CCNC(C)C1 (centres unmarked) [Compound Z-220, 3-((5-(ethyl (2-methylpiperidin-4-yl)amino)-7-(6-(4-methylpiperazin-1-yl)pyridin-3-yl)isoquinolin-1-ylamino)methyl)-4,6-dimethylpyridine-2(1H)-one] | 651 | 31
2 | CCOc1cc(N(CC)C2CCC(N(C)C)CC2)c2ccnc(NCc3c(C)cc(C)[nH]c3=O)c2n1 (centres unmarked) [Compound Z-222, 3-((4-((4-(dimethylamino)cyclohexyl) (ethyl)amino)-2-ethoxy-1,7-naphthyridin-8-ylamino)methyl)-4,6-dimethyl-2(1H)-one] | 484 | 143
3 | CCN(c1c(F)c(-c2ccc(N3CCN(C)CC3)nc2)cc2c(NCc3c(C)cc(C)[nH]c3=O)nccc12)C1CCOCC1 [Compound Z-224, 3-((5-(ethyl(tetrahydro-2H-pyran-4-yl)amino)-6-fluoro-7-(6-(4-methylpiperazin-1-yl)pyridin-3-yl)isoquinolin-1-ylamino)methyl)-4,6-dimethyl-2(1H)-one] | 605 | 360
4 | CCN(c1c(F)c(-c2ccc(N3CCN(C)CC3)nc2)cc2c(NCc3c(C)cc(C)nc3O)nccc12)[C@H]1CC[C@H](N(C)C)CC1 [Compound Z-232, 3-((5-(((1R,4R)-4-(dimethylamino)cyclohexyl) (ethyl)amino)-6-fluoro-7-(6-(4-methylpiperazin-1-yl)pyridin-3-yl)isoquinolin-1-ylamino)methyl)-4,6-dimethyl-2(1H)-one] | 188 | 26
